Like-named read-outs stand apart in the source and are kept apart here. Each block holds one compound with its values, some of them ahead of it.
Key:
[1] = Arterial blood sampling with octanol separation of freely available and bound fractions; format: in vivo, dogs; settings: 10 min. after injection; remaining activity albumin bound
Experimental: Arterial blood sampling. Blood samples (approximately 0.4-0.5 ml) were drawn from an AV shunt on a schedule similar to the scanning schedule for determination of the arterial input functions. […] Each sample was weighed and counted in a well counter soon after withdrawal, and corrections for radioactive decay were applied to recover time-activity curves for the whole-blood and freely-available arterial input functions for use with compartment modeling. […] While this could potentially complicate measurement of the input function for each tracer; however, at 10 min. after injection the octanol-extractable fraction of PTSM in the blood was only ˜1%, with the remaining activity albumin bound.

[2] = for k1^Stress / k2^Stress / k3^Stress: adenosine stress; for k1^Rest: ± SD from fit covariance
Experimental: Data acquisition. PET scans can be performed using, for example, an Advance™ PET scanner (GE Medical Systems, Waukesha, Wis.) operated in 2D mode, though other PET scanners are contemplated within the scope of this invention. Human subjects, when used, were positioned with arms down and a strap was placed across the chest to immobilize the subject and minimize movement artifacts. Transmission scans (^68Ge rod source) were acquired to position the heart in the field of view (2 min) and for attenuation correction (10 min). […] Scans performed during stress were started at the midpoint of a 6 minute adenosine infusion (0.14 mg kg^−1 min^−1) while vital signs including pulse rate, blood pressure and oxygen saturation were assessed by a physician using standard monitoring equipment.
Dynamic PET data were acquired with a waiting period of about 50-71 min between rest and stress emission scans. Imaging protocols were designed to allow rest and stress components to be added to emulate rapid dual-injection data as further described herein. Rest and stress emission scan data were acquired separately using the following temporal sampling schedule for the first 10 minutes: (12×5 s, 6×10 s, 6×30 s and 5×1 min). For rest scans, this schedule was repeated for another 10 minutes for a total emission scan duration of about 20 minutes. This provided equal duration stress timeframes that could be shifted in time and added to the rest timeframes in order to mimic a rapid dual-injection acquisition while retaining standard single-injection emission scan sequences.
Data processing. According to one embodiment, images were reconstructed using filtered back-projection with a Hanning window cutoff at 1.56 cycles cm^−1. The 128×128 image matrices had 4.3 mm voxels and a slice thickness of 4.25 mm. Data were pre-corrected for attenuation, scatter and randoms prior to reconstruction, but not for radioactive decay because it was included in the kinetic modeling equations. A reference image for each scan was created by summing up timeframes with steady uptake of tracer in the myocardium and used as a guide for reorienting to cardiac short-axis (SA) images. The SA images for all rest and stress timeframes in each subject were co-registered using a template showing the endocardial and epicardial boundaries. Based on visual comparison of an average mid-ventricular slice from each timeframe, the entire SA image volume was shifted manually to align with the template in the plane perpendicular to the SA of the heart. Co-registration was not performed in timeframes where myocardium and blood pool were indistinguishable.
Myocardial regions were selected based on a 17-segment model of the American Society of Nuclear Cardiology (Schelbert et al. 2003), known to those of ordinary skill in the art. On each slice of a reference image, endocardial and epicardial boundaries were drawn and the angle of insertion of the right ventricle into the septum was selected as a landmark for division into sectors. The myocardium was divided into one apical region, four sectors in the apical mid-ventricle, six sectors in the basal mid-ventricle and six sectors in the base of the heart. Blood pool regions were drawn manually in each subject with size restricted to limit partial volume effect and spillover of activity from the myocardium. In each subject, the same regions were applied to all co-registered rest and stress timeframes.

[3] = emulated dual-injection, background subtraction, one typical myocardial region
[4] = emulated dual-injection, combined modeling, one typical myocardial region
[5] = separate single-injection, one typical myocardial region

SMILES: CNC(=S)NN=CC(C)=NNC(=S)NC.[Cu] [PTSM, copper-pyruvaldehyde-bis[N4-methylthiosemicarbazone]]
- octanol-extractable fraction in the blood [1]: roughly 1%

- k1^Stress [2, 3]: 3.50 ± 0.32 mL/min/g
- k2^Stress [2, 3]: 0.80 ± 0.17
- k3^Stress [2, 3]: 0.24 ± 0.04
- k1^Stress [2, 4]: 3.44 ± 0.32 mL/min/g
- k2^Stress [2, 4]: 0.79 ± 0.17
- k3^Stress [2, 4]: 0.24 ± 0.04
- k1^Stress [2, 5]: 3.33 ± 0.27 mL/min/g
- k2^Stress [2, 5]: 0.69 ± 0.12
- k3^Stress [2, 5]: 0.20 ± 0.03
- k1^Rest ([2]; emulated dual-injection data, background subtraction, one typical myocardial region): 0.92 ± 0.05 mL/min/g
- k1^Rest ([2]; emulated dual-injection data, combined modeling, 20 min, one typical myocardial region): 0.93 ± 0.05 mL/min/g
- k2^Rest [2, 3]: 0.13 ± 0.04
- k3^Rest [2, 3]: 0.08 ± 0.07
- k4^Rest [2, 3]: 0.47 ± 0.02
- k2^Rest [2, 4]: 0.14 ± 0.04
- k3^Rest [2, 4]: 0.11 ± 0.06
- k4^Rest [2, 4]: 0.47 ± 0.02
- k1^Rest ([2]; separate single-injection, first 10 min of data, one typical myocardial region (FIG. 5)): 0.92 ± 0.05 mL/min/g
- k2^Rest [2, 5]: 0.13 ± 0.04
- k3^Rest [2, 5]: 0.08 ± 0.07
- k4^Rest [2, 5]: 0.47 ± 0.02
SMILES: [13NH3] [^13N-ammonia]

From US7848557B2, “Rapid multi-tracer PET imaging systems and methods” (priority 2007, dated 2010)
